Consider one molecule from ChEMBL document CHEMBL2331362, “Identification of N-acyl 4-(5-pyrimidine-2,4-dionyl)phenylalanine derivatives and their orally active prodrug esters as dual-acting alpha4-beta1 and alpha4-beta7 receptor antagonists” (Bioorg Med Chem Lett, 2013).

A short description of series [1]: AUC (0 to 8 hrs) in rat at 10 mg/kg, iv. The series is classed as ADME, organism-based. On the set-up: time < 8 hr, dose 10 mg/kg, route intravenous. Particulars: plasma.
Series [2] in a line: Mean residence time in rat at 10 mg/kg, iv. The series is classed as ADME, organism-based. Particulars: in vivo. On the set-up: dose 10 mg/kg, route intravenous.
Series [3] concerns the target Integrin alpha-4/beta-7 (Homo sapiens) (UniProt P13612+P26010). The experiment in a line: Inhibition of human MAdCAM1 binding to integrin alpha4beta7 receptor in human RPMI 8866 cells labeled with Calcein AM relative to (S)-2-(2-chloro-6-methylbenzamido)-3-(4-(2,6-dichlorobenzamido)phenyl)propanoic acid. The series is classed as cell-based.
Series [4] is described as follows: Clearance in dog at 5 mg/kg, iv. The series is classed as ADME, organism-based, Canis lupus familiaris. As to conditions: in vivo. On the set-up: dose 5 mg/kg, route intravenous.
The nature of series [5]: AUC (0 to 8 hrs) in mouse at 10 mg/kg, iv. The series is classed as ADME, organism-based. Set-up: time < 8 hr, dose 10 mg/kg, route intravenous. Particulars: plasma.
Series [6] is described as follows: Half life in cynomolgus monkey at 10 mg/kg, iv. The series is classed as ADME, organism-based, Macaca fascicularis. As to conditions: in vivo. Set-up: dose 10 mg/kg, route intravenous.
The nature of series [7]: Clearance in mouse at 10 mg/kg, iv. As to conditions: in vivo. The series is classed as ADME, organism-based. On the set-up: dose 10 mg/kg, route intravenous.
Series [8] can be described thus: Mean residence time in mouse at 10 mg/kg, iv. Set-up: dose 10 mg/kg, route intravenous. The series is classed as ADME, organism-based. Particulars: in vivo.
Series [9] can be described thus: Mean residence time in dog at 5 mg/kg, iv. The series is classed as ADME, organism-based, Canis lupus familiaris. On the set-up: dose 5 mg/kg, route intravenous. As to conditions: in vivo.
A further series has as its target T1, Integrin alpha-4/beta-7 (Homo sapiens, UniProt P13612+P26010).
T1 sequence (P13612 whole entry): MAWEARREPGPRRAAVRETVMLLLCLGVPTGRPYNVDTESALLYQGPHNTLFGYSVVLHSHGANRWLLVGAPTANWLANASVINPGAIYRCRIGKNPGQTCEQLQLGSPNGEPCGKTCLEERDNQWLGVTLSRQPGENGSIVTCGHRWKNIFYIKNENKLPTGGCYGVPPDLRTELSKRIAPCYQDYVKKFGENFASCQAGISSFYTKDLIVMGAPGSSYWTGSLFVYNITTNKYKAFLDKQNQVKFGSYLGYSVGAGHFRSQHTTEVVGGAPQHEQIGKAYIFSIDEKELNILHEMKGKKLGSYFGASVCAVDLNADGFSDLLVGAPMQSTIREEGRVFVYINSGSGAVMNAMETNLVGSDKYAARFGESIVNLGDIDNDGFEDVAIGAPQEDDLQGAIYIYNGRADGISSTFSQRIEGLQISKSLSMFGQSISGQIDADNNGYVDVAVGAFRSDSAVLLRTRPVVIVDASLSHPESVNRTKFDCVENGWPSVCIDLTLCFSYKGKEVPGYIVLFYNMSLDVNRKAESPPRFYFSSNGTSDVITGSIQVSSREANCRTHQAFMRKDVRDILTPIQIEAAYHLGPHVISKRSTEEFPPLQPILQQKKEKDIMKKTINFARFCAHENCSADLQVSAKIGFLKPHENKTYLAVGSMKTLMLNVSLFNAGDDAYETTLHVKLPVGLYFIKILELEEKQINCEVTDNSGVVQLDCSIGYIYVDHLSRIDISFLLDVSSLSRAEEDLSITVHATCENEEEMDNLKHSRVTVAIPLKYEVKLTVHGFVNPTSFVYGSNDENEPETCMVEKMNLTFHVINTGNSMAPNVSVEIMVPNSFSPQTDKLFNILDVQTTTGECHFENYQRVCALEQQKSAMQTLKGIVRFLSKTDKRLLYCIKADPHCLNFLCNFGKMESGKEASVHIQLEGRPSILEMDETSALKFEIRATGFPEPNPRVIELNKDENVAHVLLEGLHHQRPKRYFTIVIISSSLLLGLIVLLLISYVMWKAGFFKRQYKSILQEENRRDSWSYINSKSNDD
T1 sequence (P26010 whole entry): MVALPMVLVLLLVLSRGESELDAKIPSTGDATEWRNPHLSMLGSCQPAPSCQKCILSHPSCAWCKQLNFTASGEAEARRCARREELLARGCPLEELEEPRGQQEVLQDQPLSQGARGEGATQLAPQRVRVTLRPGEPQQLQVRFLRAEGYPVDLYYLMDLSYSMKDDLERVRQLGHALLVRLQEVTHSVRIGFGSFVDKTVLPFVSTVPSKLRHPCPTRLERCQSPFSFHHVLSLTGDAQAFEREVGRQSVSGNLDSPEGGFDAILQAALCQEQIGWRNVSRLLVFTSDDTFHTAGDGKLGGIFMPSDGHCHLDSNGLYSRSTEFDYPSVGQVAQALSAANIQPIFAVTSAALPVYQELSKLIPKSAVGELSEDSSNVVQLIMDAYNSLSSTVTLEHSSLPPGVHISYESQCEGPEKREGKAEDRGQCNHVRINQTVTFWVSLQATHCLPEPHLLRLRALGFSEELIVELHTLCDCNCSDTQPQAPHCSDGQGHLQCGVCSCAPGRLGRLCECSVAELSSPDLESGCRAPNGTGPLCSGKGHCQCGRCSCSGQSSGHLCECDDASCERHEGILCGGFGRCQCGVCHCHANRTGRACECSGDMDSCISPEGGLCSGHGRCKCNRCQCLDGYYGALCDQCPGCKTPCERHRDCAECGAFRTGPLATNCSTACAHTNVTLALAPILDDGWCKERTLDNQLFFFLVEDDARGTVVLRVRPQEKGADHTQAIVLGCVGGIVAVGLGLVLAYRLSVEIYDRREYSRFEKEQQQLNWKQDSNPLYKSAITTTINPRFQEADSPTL
The experiment in a line: Inhibition of human MAdCAM1 binding to integrin alpha4beta7 receptor in human RPMI 8866 cells labeled with Calcein AM. The series is classed as cell-based.

Series [10] in a line: Distribution coefficient, log D of the compound. As to conditions: octanol/water. The series is classed as physicochemical.
Series [11] can be described thus: AUC (0 to 8 hrs) in dog at 5 mg/kg, iv. The series is classed as ADME, organism-based, Canis lupus familiaris. As to conditions: plasma. On the set-up: time < 8 hr, dose 5 mg/kg, route intravenous.
The nature of series [12]: Clearance in rat at 10 mg/kg, iv. On the set-up: dose 10 mg/kg, route intravenous. Particulars: in vivo. The series is classed as ADME, organism-based.
The target in series [13] is T2, Integrin alpha-4/beta-1 (Homo sapiens, UniProt P05556+P13612). The experiment in a line: Inhibition of human VCAM1 binding to integrin alpha4beta1 receptor in human Ramos cells labeled with Calcein AM relative to (S)-2-(2-chloro-6-methylbenzamido)-3-(4-(2,6-dichlorobenzamido)phenyl)propanoic acid. The series is classed as cell-based.
Series [14] is described as follows: Mean residence time in cynomolgus monkey at 10 mg/kg, iv. Set-up: dose 10 mg/kg, route intravenous. The series is classed as ADME, organism-based, Macaca fascicularis. As to conditions: in vivo.
Series [15] in a line: AUC (0 to 8 hrs) in cynomolgus monkey at 10 mg/kg, iv. The series is classed as ADME, organism-based, Macaca fascicularis. Set-up: time < 8 hr, dose 10 mg/kg, route intravenous. As to conditions: plasma.
The nature of series [16]: Apparent permeability across human Caco2 cells. The series is classed as ADME, cell-based. Particulars: Caco-2. A general note: Caco-2 cells form a polarised layer with tight junctions and transporters.
A short description of series [17]: Clearance in cynomolgus monkey at 10 mg/kg, iv. The series is classed as ADME, organism-based, Macaca fascicularis. Set-up: dose 10 mg/kg, route intravenous. Particulars: in vivo.
Series [18] deals with T2, Integrin alpha-4/beta-1. Description: Inhibition of human VCAM1 binding to integrin alpha4beta1 receptor in human Ramos cells labeled with Calcein AM. The series is classed as cell-based.
Series [19] can be described thus: Half life in dog at 5 mg/kg, iv. On the set-up: dose 5 mg/kg, route intravenous. Particulars: in vivo. The series is classed as ADME, organism-based, Canis lupus familiaris.

Structures are written as SMILES.

T2 sequence (P05556 whole entry, one chain of several): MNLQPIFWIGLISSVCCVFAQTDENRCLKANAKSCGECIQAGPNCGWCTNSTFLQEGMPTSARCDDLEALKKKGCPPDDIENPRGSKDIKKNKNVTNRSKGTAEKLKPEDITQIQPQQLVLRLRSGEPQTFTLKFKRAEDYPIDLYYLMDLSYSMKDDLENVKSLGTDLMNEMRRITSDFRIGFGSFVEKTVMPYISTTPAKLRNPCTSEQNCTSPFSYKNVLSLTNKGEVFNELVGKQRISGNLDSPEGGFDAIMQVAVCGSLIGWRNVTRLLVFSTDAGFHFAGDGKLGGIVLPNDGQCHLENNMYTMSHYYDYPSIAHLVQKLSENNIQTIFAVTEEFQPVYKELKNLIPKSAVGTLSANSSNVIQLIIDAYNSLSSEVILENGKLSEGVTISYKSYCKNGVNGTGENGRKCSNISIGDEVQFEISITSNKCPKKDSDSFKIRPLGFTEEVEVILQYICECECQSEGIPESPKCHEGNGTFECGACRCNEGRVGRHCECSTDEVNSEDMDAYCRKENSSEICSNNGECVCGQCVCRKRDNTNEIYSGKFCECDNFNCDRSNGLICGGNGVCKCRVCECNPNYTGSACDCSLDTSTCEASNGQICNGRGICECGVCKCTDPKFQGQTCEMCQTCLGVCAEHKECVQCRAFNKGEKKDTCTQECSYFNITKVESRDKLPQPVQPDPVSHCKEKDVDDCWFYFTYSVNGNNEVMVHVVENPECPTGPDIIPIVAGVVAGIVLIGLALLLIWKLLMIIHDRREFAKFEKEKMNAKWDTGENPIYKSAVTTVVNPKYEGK

In the case of `Cc1c(-c2ccc(C[C@H](NC(=O)c3c(F)cccc3F)C(=O)O)cc2)c(=O)n(C)c(=O)n1C`, the AUC(0-t) at 8 h amounted to 41.5 µg·h/mL in [1], 7.89 µg·h/mL in series [5], 2.79 µg·h/mL in series [11] and 22.2 µg·h/mL in series [15]. For the same molecule, the MRT in series [2] came to 36.6 min; in series [8] it was 15.6 min; in series [9] it was 12.6 min; in [14], 15 min. Besides, the figures for the Ratio IC50 (in [3]; on Integrin alpha-4/beta-1 [13]) were 3.3 and 3.2, respectively. In addition, the clearance in [4] stood at 1.78 L/h/kg; in [7] it was 1.26 L/h/kg; in series [12], 0.288 L/h/kg; in [17] it was 0.413 L/h/kg. The half-life is 87.6 min in series [6] and 11.4 min in [19]. The 50% inhibitory concentration (IC50) was 0.081 µM at Integrin alpha-4/beta-7 and 0.018 µM on Integrin alpha-4/beta-1 [18]. In addition, in [10], the pH-dependent lipophilicity (logD) is -2.36. The Papp in series [16] stood at 7.7 nm/s.

The AUC(0-t) is the area under the concentration-time curve up to a stated or last time point. One may read the MRT as the average time that molecules of a dose stay in the body. In general, clearance refers to the rate of elimination divided by the concentration. One may read the half-life as the time needed for the level to fall by half in the phase considered. The term IC50 denotes the point on the concentration scale where inhibition reaches its midpoint. Usually logD stands for lipophilicity at a set pH, counting ionised and neutral species. As a reminder, the Papp is a coefficient for how fast a substance crosses the barrier.
